Values of other authors as cited in publication PMC3694426 (Clinical cancer research : an official journal of the …, 2013).

What was measured:
[1] = tested on: B837Tx medulloblastoma allograft; conditions: oral administration; cited from earlier work
[2] = biological target: Smo receptor; conditions: read-out: IC50, binding to the Smo receptor; stated in introduction; cited from earlier work
[3] = tested on: transgenic pancreatic cancer models; conditions: cited from earlier work

For `CC1=C2C[C@H]3[C@@H](CC[C@@H]4C[C@H](NS(C)(=O)=O)CC[C@@]43C)[C@@H]2CC[C@@]2(C1)O[C@@H]1C[C@H](C)CN[C@H]1[C@H]2C` [IPI-926], the “inhibition of HhP activity (downregulation of Gli1 mRNA)” value [1] is listed as “dose-dependent inhibition of HhP activity”, the “survival of mice bearing orthotopically implanted tumors” value [1] is listed as “significant prolongation of survival” and the IC50 [2] is listed as 1.4 nM. For the same compound, the “intratumoral concentration of gemcitabine” value [3] was “enhanced intratumoral concentration of gemcitabine”.
